Measured values from patent US10028992B2, “Methods of treating muscular dystrophy” (BOARD OF REGENTS OF THE NEVADA SYSTEM OF HIGHER EDUCATION …, priority 2012, dated 2018).

System: α7 integrin promoter
Assay: muscle cell-based assay: α7βgal+/− myoblasts/myotubes, LacZ reporter, β-galactosidase cleavage of FDG
Set-up: species or system mouse
Details: for Fit HillSlope: curve fit; for Fit Infinite Activity [%]: fitted activity at infinite concentration; for Fit Zero Activity [%]: fitted activity at zero concentration; for Fit Curve Class: key not given; for Score: Table 12 Compound data, concentration-response curve fit; for AC50 / Emax: Mus musculus; for AC50: read-out: Fit Log AC50 (converted); for Emax: read-out: Max Response [%]
Procedure: An α7 integrin null mouse was produced in which exon 1 of the gene encoding the α7 integrin was replaced by the LacZ reporter. In these mice, all the transcriptional regulatory elements of the α7 integrin promoter were retained, allowing β-galactosidase to report expression of 7 integrin. A primary myoblast cell line (designated α7βgal^+/−) isolated from 10 day old α7^+/− pups were analyzed for the ability of β-galactosidase to report α7 integrin expression. α7βgal^+/− myoblasts were differentiated and subjected to X-gal staining and western analysis (FIGS. 1A and 1B).
The activity of the α7 integrin promoter was measured by β-galactosidase cleavage of the non-fluorescent compound fluorescein di-β-D-galactopyranoside (FDG) to fluorescein. This assay was used to screen compound libraries to identify molecules that up-regulate α7 integrin expression in muscle.
Also evaluated was the effect of various isoforms of laminin and the ligand for α7β1 integrin on integrin expression. Positive hits were subjected to dose-response analysis, western analysis and a myostatin counterscreen (a negative regulator of muscle growth).

[1] = Table 12, log of AC50, given with negative sign, unit of AC50 not given

SMILES | Max Response [%] | Activity at 0.307 μM [%] ** | Activity at 1.530 μM [%] ** | Activity at 7.660 μM [%] ** (7.660 μM) | Activity at 38.30 μM [%] ** | Fit HillSlope (Table 12) | Fit Infinite Activity [%] (Table 12) | Fit Zero Activity [%] (Table 12) | Fit Curve Class (Table 12) | Fit Log AC50 [1] | Score | AC50 [1] | Emax
Cc1c(C(=O)O)cccc1-n1c(C)cc(/C=N/Nc2ccc([N+](=O)[O-])cn2)c1C [Compound 9] | 88.6572% | −24.4743% | 6.2893% | 68.0567% | 88.6572% | 1.3723 | 92.2022% | −30.5005% | 1.1 | −5.55 | 85 |  | 
Cc1ccc(NP(=O)(Nc2ccc(C)cc2)Nc2ccc(C)cc2)cc1 [Compound 10] |  | 0% |  |  |  | 2.8473 |  | 0% | 1.1 |  | 85 | 3.16 µM | 102%
Cc1cc(OCC(=O)NC(C)C)ccc1Cl [Compound 11] |  | 0% |  |  |  | 2.5334 |  | −0.509% | 1.1 |  | 85 | 3.98 µM | 102%
COC(=O)C1=C(C)N=C(C)/C(=C(/O)OC)C1c1ccccc1OCc1c(C)no[n+]1[O-] (centres unmarked) [Compound 12] |  |  |  |  |  | 1.4781 |  | 9.3996% | 1.1 |  | 85 | 2.82 µM | 100%
COc1ccc(NC(=O)c2cccc(N3C(=O)c4ccc(C(=O)Nc5ccc(OC)c(O)c5)cc4C3=O)c2)cc1O [Compound 13] |  |  |  |  |  | 3.9295 |  | −27.2857% | 1.1 |  | 84 | 4.47 µM | 95.6%
CCOc1ccc(S(=O)(=O)NCCC(=O)NCC(c2cccs2)N2CCOCC2)cc1 (centres unmarked) [Compound 14] |  |  |  |  |  | 2.3332 |  | −21.9345% | 1.1 |  | 84 | 2.24 µM | 61.7%
CCOc1ccccc1NC(=O)c1cccc2c1C(=O)N(C1CCCCC1)C2 [Compound 15] |  |  |  |  |  | 1.6259 |  | −16.1195% | 1.1 |  | 84 | 3.16 µM | 73.6%
NC(=O)c1nsc(C(=O)N(c2ccccc2)C(C(=O)NCc2ccc(F)cc2)c2ccc(O)cc2)c1N (centres unmarked) [Compound 16] |  |  |  |  |  | 1.3443 |  | −37.8568% | 1.1 |  | 84 | 2.24 µM | 75.2%
CCc1ccc(N(C(=O)c2snc(C(N)=O)c2N)C(C(=O)NC2CCCC2)c2ccco2)cc1 (centres unmarked) [Compound 17] |  |  |  |  |  | 1.2475 |  | −24.7641% | 1.1 |  | 84 | 2.51 µM | 67.6%
COC(=O)C(=O)C/C(=N/Nc1ncnc2ccccc12)c1ccc(Cl)cc1 [Compound 18] |  |  |  |  | 1767.43% | 4.9549 | 1760.36% | 8.7984% | 2.1 |  | 84 | 10 µM | 
Cc1cc(NC(=O)c2ccc(Cl)cc2Cl)no1 [Compound 19] |  |  |  |  |  | 1.3437 |  | −28.8963% | 1.1 |  | 84 | 1.41 µM | 52.1%
CCOC(=O)Cc1csc(NC(=S)NC(=O)c2cc(OC)c(OC)c(OC)c2)n1 [Compound 20] |  |  |  |  |  | 2.3031 |  | −17.7204% | 1.1 |  | 84 | 3.55 µM | 82.9%
CC(C)CC1NC(=O)N(CC(=O)N2c3ccccc3NC(=O)C2(C)C)C1=O (centres unmarked) [Compound 21] |  |  | 0% |  |  | 4.4495 |  | 1.1731% | 1.1 |  | 84 | 5.62 µM | 93.3%
COCCSc1ccccc1C(=O)Nc1cc(C)cc(C)c1 [Compound 22] |  | 0% | 0% |  |  | 4.9549 |  | −0.2899% | 1.1 |  | 84 | 4.47 µM | 82.9%
O=c1oc2c(-c3cccc(F)c3)cc(O)cc2s1 [Compound 23] |  |  |  |  |  | 2.9023 |  | 13.3122% | 1.1 |  | 84 | 3.98 µM | 98.9%
